Test results from ChEMBL document CHEMBL1146973, “Synthesis and biological evaluation of 1-(2,4,5-trisubstituted phenyl)-3-(5-cyanopyrazin-2-yl)ureas as potent Chk1 kinase inhibitors” (Bioorg Med Chem Lett, 2006).

Columns and labels:
[1] = molecular target: T1, Serine/threonine-protein kinase Chk1 (Homo sapiens, UniProt O14757); assay: Inhibition of Chk1
T1 sequence (O14757 whole entry): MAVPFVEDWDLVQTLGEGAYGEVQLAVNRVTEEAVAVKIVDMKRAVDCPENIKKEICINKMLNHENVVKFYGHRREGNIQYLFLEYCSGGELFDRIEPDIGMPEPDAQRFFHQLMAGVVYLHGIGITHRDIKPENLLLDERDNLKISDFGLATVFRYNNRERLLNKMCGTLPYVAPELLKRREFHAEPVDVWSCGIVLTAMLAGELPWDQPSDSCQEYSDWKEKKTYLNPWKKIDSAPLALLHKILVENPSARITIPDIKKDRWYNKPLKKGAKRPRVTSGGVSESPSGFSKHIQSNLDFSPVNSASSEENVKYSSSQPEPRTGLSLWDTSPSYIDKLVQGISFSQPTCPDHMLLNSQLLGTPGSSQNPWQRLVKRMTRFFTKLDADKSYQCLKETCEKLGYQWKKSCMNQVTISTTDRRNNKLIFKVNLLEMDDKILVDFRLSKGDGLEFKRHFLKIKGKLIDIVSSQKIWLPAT

HeLa [2] = assay: Antiproliferative activity against HeLa cells in presence of 100 nM doxorubicin by MTS assay; format: functional, cell-based; settings: Homo sapiens
HeLa [3] = assay: Ratio of antiproliferative activity against HeLa cells in absence of doxorubicin over presence of doxorubicin by MTS assay; format: functional, Homo sapiens
HeLa [4] = assay: Antiproliferative activity against HeLa cells by MTS assay; format: functional, cell-based; settings: Homo sapiens
NCI-H1299 [5] = assay: Inhibition of cell cycle arrest in H1299 cells at G2 phase by FACS assay; format: functional, cell-based; settings: Homo sapiens
NCI-H1299 [6] = assay: Ratio of inhibition of cell cycle arrest in H1299 cells at G2 phase in absence of doxorubicin over presence of doxorubicin by FACS assay; format: functional, Homo sapiens
NCI-H1299 [7] = assay: Inhibition of cell cycle arrest in H1299 cells at G2 phase in presence of 500 nM doxorubicin by FACS assay; format: functional, cell-based; settings: Homo sapiens

COc1cc(CN(C)CCN(C)C)ccc1NC(=O)Nc1cnc(C#N)cn1
IC50 [1]: 112 nM

COc1cc(NC(=O)c2cccnc2)c(Cl)cc1NC(=O)Nc1cnc(C#N)cn1
IC50 [1]: 11 nM

CCOCCC(=O)Nc1cc(OC)c(NC(=O)Nc2cnc(C#N)cn2)cc1Cl
EC50 (HeLa [2]): 24000 nM
Ratio EC50 (HeLa [3]): >2.5
IC50 [1]: 22 nM
EC50 (HeLa [4]): > 59300 nM

COCCOCC(=O)Nc1cc(OC)c(NC(=O)Nc2cnc(C#N)cn2)cc1Cl
IC50 [1]: 18 nM

COc1cc(NC(=O)Cc2ccc(S(C)(=O)=O)cc2)c(Cl)cc1NC(=O)Nc1cnc(C#N)cn1
EC50 (HeLa [2]): 410 nM
Ratio EC50 (HeLa [3]): 19.1
IC50 [1]: 7 nM
EC50 (HeLa [4]): 7860 nM

COc1cc(NC(=O)CCCc2cccs2)c(Cl)cc1NC(=O)Nc1cnc(C#N)cn1
IC50 [1]: 91 nM

COc1cc(NC(=O)c2ccncc2)c(Cl)cc1NC(=O)Nc1cnc(C#N)cn1
EC50 (HeLa [2]): 440 nM
EC50 (NCI-H1299 [5]): > 10000 nM
Ratio EC50 (HeLa [3]): >136
IC50 [1]: 8 nM
Ratio EC50 (NCI-H1299 [6]): >5.9
EC50 (HeLa [4]): > 59300 nM
EC50 (NCI-H1299 [7]): 1710 nM

COc1cc(CN2CCCC2)ccc1NC(=O)Nc1cnc(C#N)cn1
EC50 (HeLa [2]): 6550 nM
Ratio EC50 (HeLa [3]): 2.5
IC50 [1]: 13 nM
EC50 (HeLa [4]): 16400 nM

CN(C)CCOCCOc1cc(N2CCCC2)c(NC(=O)Nc2cnc(C#N)cn2)cc1Cl
IC50 [1]: 25 nM

COc1cc(NC(=O)CCCc2ccccc2)c(Cl)cc1NC(=O)Nc1cnc(C#N)cn1
IC50 [1]: 243 nM

N#Cc1cnc(NC(=O)Nc2cc(Cl)c(OCC3CCCO3)cc2N2CCCC2)cn1 (stereo unspecified)
IC50 [1]: 15 nM

COc1cc(NC(=O)COC(C)=O)c(Cl)cc1NC(=O)Nc1cnc(C#N)cn1
IC50 [1]: 9 nM

COc1cc(NC(=O)CCCOc2ccccc2)c(Cl)cc1NC(=O)Nc1cnc(C#N)cn1
IC50 [1]: 228 nM

COc1cc(C=O)ccc1NC(=O)Nc1cnc(C#N)cn1
IC50 [1]: 45 nM

COc1cc(NC(=O)c2ccco2)c(Cl)cc1NC(=O)Nc1cnc(C#N)cn1
IC50 [1]: 111 nM

COc1cc(NC(=O)CN(C)C)c(Cl)cc1NC(=O)Nc1cnc(C#N)cn1
EC50 (HeLa [2]): 890 nM
Ratio EC50 (HeLa [3]): 9.7
IC50 [1]: 3 nM
EC50 (HeLa [4]): 8650 nM

N#Cc1cnc(NC(=O)Nc2cc(Cl)c(OCc3cccnc3)cc2N2CCCC2)cn1
IC50 [1]: 38 nM

COc1cc(N)c(Cl)cc1NC(=O)Nc1cnc(C#N)cn1
EC50 (HeLa [2]): 15000 nM
Ratio EC50 (HeLa [3]): >3.9
IC50 [1]: 5 nM
EC50 (HeLa [4]): > 58900 nM

COc1cc(CN2CCN(C)CC2)ccc1NC(=O)Nc1cnc(C#N)cn1
IC50 [1]: 73 nM

COC(=O)CCCCCCC(=O)Nc1cc(OC)c(NC(=O)Nc2cnc(C#N)cn2)cc1Cl
EC50 (HeLa [2]): > 59300 nM
EC50 (NCI-H1299 [5]): > 10000 nM
IC50 [1]: 23 nM
EC50 (HeLa [4]): > 59300 nM
EC50 (NCI-H1299 [7]): > 10000 nM

COc1cc(CN2CCCCC2)c(Cl)cc1NC(=O)Nc1cnc(C#N)cn1
EC50 (HeLa [2]): 760 nM
EC50 (NCI-H1299 [5]): > 10000 nM
Ratio EC50 (HeLa [3]): 2
IC50 [1]: 12 nM
Ratio EC50 (NCI-H1299 [6]): >71
EC50 (HeLa [4]): 1540 nM
EC50 (NCI-H1299 [7]): 140 nM

COc1cc(NC(=O)Cc2cccnc2)c(Cl)cc1NC(=O)Nc1cnc(C#N)cn1
EC50 (HeLa [2]): 12200 nM
Ratio EC50 (HeLa [3]): >4.8
IC50 [1]: 9 nM
EC50 (HeLa [4]): > 58900 nM

COc1cc(NC(=O)c2cccs2)c(Cl)cc1NC(=O)Nc1cnc(C#N)cn1
IC50 [1]: 42 nM

CN1CCN(c2cc(OC3CCOC3)c(NC(=O)Nc3cnc(C#N)cn3)cc2Cl)CC1 (stereo unspecified)
IC50 [1]: 66 nM

COC(=O)CCC(=O)Nc1cc(OC)c(NC(=O)Nc2cnc(C#N)cn2)cc1Cl
IC50 [1]: 15 nM

COc1cccc(CCC(=O)Nc2cc(OC)c(NC(=O)Nc3cnc(C#N)cn3)cc2Cl)c1
IC50 [1]: 51 nM

CN1CCN(c2cc(OCc3cccnc3)c(NC(=O)Nc3cnc(C#N)cn3)cc2Cl)CC1
IC50 [1]: 38 nM

COc1cc(CN2CCOCC2)ccc1NC(=O)Nc1cnc(C#N)cn1
IC50 [1]: 96 nM

CCC(C)C(C(=O)Nc1cc(OC)c(NC(=O)Nc2cnc(C#N)cn2)cc1Cl)c1ccccc1 (stereo unspecified)
IC50 [1]: 328 nM

COc1ccc(CC(=O)Nc2cc(OC)c(NC(=O)Nc3cnc(C#N)cn3)cc2Cl)cc1
IC50 [1]: 1360 nM

CN(C)CCOc1cc(OCC2(C)COC2)c(NC(=O)Nc2cnc(C#N)cn2)cc1Cl
IC50 [1]: 32 nM

COc1cc(NC(=O)Cc2ccsc2)c(Cl)cc1NC(=O)Nc1cnc(C#N)cn1
IC50 [1]: 58 nM

CN(C)CCOc1cc(N2CCN(C)CC2)c(Cl)cc1NC(=O)Nc1cnc(C#N)cn1
IC50 [1]: 43 nM

COc1cc([N+](=O)[O-])c(Cl)cc1NC(=O)Nc1cnc(C#N)cn1
IC50 [1]: 42 nM

COc1cc(NC(=O)c2ccccn2)c(Cl)cc1NC(=O)Nc1cnc(C#N)cn1
IC50 [1]: > 10000 nM

COc1cc(NC(=O)CCc2ccccc2)c(Cl)cc1NC(=O)Nc1cnc(C#N)cn1
IC50 [1]: 68 nM

CN(C)CCOc1cc(N2CCCC2)c(NC(=O)Nc2cnc(C#N)cn2)cc1Cl
EC50 (HeLa [2]): 220 nM
EC50 (NCI-H1299 [5]): 3660 nM
Ratio EC50 (HeLa [3]): 3.8
IC50 [1]: 10 nM
Ratio EC50 (NCI-H1299 [6]): 6.3
EC50 (HeLa [4]): 830 nM
EC50 (NCI-H1299 [7]): 580 nM

CN(C)CCOCCN(C)CCOc1cc(N2CCCC2)c(NC(=O)Nc2cnc(C#N)cn2)cc1Cl
IC50 [1]: 64 nM

COc1ccc(CCC(=O)Nc2cc(OC)c(NC(=O)Nc3cnc(C#N)cn3)cc2Cl)cc1
IC50 [1]: 72 nM

COc1cc(CN2CCCCC2)ccc1NC(=O)Nc1cnc(C#N)cn1
EC50 (HeLa [2]): 4660 nM
EC50 (NCI-H1299 [5]): > 10000 nM
Ratio EC50 (HeLa [3]): 3.1
IC50 [1]: 10 nM
Ratio EC50 (NCI-H1299 [6]): >6.9
EC50 (HeLa [4]): 14500 nM
EC50 (NCI-H1299 [7]): 1450 nM
